Laboratory results reported in publication PMC6471342, “Synthesis of Thymidine Phosphorylase Inhibitor Based on Quinoxaline Derivatives and Their Molecular Docking Study” (Molecules, 2019).
Where two headings read alike, the source gives them in different places.

Target: T1, thymidine phosphorylase/PD-ECGF (E. coli) (Escherichia coli, UniProt P07650)
T1 construct: purchased
Experiment: Thymidine phosphorylase inhibition assay (absorbance at 290 nm)
Type: biochemical
Details: for IC50: Table 1, triplicate; for thymidine phosphorylase inhibition, result in words: compared with standard 7-Deazaxanthine
Protocol: Since human TP is not easy to obtain, we used commercially available recombinant E. coli TP. The primary sequence of TP is frequently preserved throughout evolution as mammalian TP is reported to share 39% sequence resemblance with the TP of E. coli. The mammalian enzyme also shared up to 70% resemblance with the active site residues, and three-dimensional structure of E. coli TP enzyme. The thymidine phosphorylase/PD-ECGF (E. coli) activity was determined by measuring the absorbance at 290 nm spectrophotometrically. The method was described in [50, 51]. In brief, the total reaction mixture of 200 µL contained 145 µL of potassium phosphate buffer (pH 7.4), 30 µL of enzyme (human and E. coli) at concentration 0.05 and 0.002 U, respectively, were incubated with 5 µL of test materials for 10 min at 25 °C in a microplate reader. After incubation, a pre-read at 290 nm was taken to deduce the absorbance of substrate particles. The substrate (20 µL, 1.5 mM), dissolved in potassium phosphate buffer, was immediately added to the plate and continuously read after 10, 20, and 30 min in a microplate reader (SpectraMax, Molecular Devices, CA, USA). All assays were performed in triplicate.
Reactions for above mentioned biological activities were carried out in triplicate. Results were then processed using SoftMax Pro 4.8 software (Molecular Devices, San Jose, CA, USA) and then by Microsoft Excel. The percent inhibition for above mentioned biological activities was calculated by following formula:Percent Inhibition = 100 − (ODtest compound/ODcontrol) × 100(1)

T1 sequence (P07650 whole entry): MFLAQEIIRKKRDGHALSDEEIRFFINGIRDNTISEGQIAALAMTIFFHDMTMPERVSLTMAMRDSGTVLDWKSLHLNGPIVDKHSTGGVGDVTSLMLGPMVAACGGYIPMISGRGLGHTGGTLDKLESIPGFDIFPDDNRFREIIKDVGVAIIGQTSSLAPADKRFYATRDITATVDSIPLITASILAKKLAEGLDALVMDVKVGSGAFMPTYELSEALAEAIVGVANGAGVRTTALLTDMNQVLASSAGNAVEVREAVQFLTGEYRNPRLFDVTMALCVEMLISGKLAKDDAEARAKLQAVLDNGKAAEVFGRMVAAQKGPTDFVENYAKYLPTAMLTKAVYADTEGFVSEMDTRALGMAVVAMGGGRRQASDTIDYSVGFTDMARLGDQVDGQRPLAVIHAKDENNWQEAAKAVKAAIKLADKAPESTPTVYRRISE

Compound	IC50 (read-out: IC50 (mM ± SEM)) [mM]	thymidine phosphorylase inhibition, result in words	IC50 (read-out: IC50 (µM ± SEM)) [mM]
Oc1ccc(-c2csc3nnc(-c4cnc5ccccc5n4)n23)cc1O [Compound 16, 4-(3-(quinoxalin-2-yl)thiazolo[2,3-c][1,2,4]triazol-5-yl)benzene-1,2-diol]	0.0035 ± 0.0002	outstanding inhibition	
Oc1ccccc1-c1csc2nnc(-c3cnc4ccccc4n3)n12 [Compound 24, 2-(3-(quinoxalin-2-yl)thiazolo[2,3-c][1,2,4]triazol-5-yl)phenol]	0.0131 ± 0.0003	outstanding inhibition	
Fc1ccccc1-c1csc2nnc(-c3cnc4ccccc4n3)n12 [Compound 1, 5-(2-flourophenyl)-3(Quinoxalin-2yl)thiazolo[2,3-c][1,2,4]triazole]		outstanding inhibition	0.0136 ± 0.0004
COc1cccc(-c2csc3nnc(-c4cnc5ccccc5n4)n23)c1 [Compound 19, 5-(3-methoxyphenyl)-3-(quinoxalin-2-yl)thiazolo[2,3-c][1,2,4]triazole]		inactive	
O=[N+]([O-])c1ccccc1-c1csc2nnc(-c3cnc4ccccc4n3)n12 [Compound 7, 5-(2-nitrophenyl)-3(Quinoxalin-2yl)thiazolo[2,3-c][1,2,4]triazole]		outstanding inhibition	0.0347 ± 0.0008
Oc1cccc(-c2csc3nnc(-c4cnc5ccccc5n4)n23)c1O [Compound 25, 3-(3-(quinoxalin-2-yl)thiazolo[2,3-c][1,2,4]triazol-5-yl)benzene-1,2-diol]	0.0032 ± 0.0001		
Fc1cccc(-c2csc3nnc(-c4cnc5ccccc5n4)n23)c1 [Compound 2, 5-(3-flourophenyl)-3(Quinoxalin-2yl)thiazolo[2,3-c][1,2,4]triazole]		outstanding inhibition	0.0261 ± 0.0007
c1cncc(-c2csc3nnc(-c4cnc5ccccc5n4)n23)c1 [Compound 22, 5-(pyridin-3-yl)-3-(quinoxalin-2-yl)thiazolo[2,3-c][1,2,4]triazole]		inactive	
Clc1cccc(-c2csc3nnc(-c4cnc5ccccc5n4)n23)c1 [Compound 5, 5-(3-chlorophenyl)-3(Quinoxalin-2yl)thiazolo[2,3-c][1,2,4]triazole]		outstanding inhibition	0.0334 ± 0.0008
COc1ccc(O)c(-c2csc3nnc(-c4cnc5ccccc5n4)n23)c1 [Compound 21, 4-methoxy-2-(3-(quinoxalin-2-yl)thiazolo[2,3-c][1,2,4]triazol-5-yl)phenol]	0.0262 ± 0.0005	outstanding inhibition	
Fc1ccc(-c2csc3nnc(-c4cnc5ccccc5n4)n23)cc1 [Compound 3, 5-(4-flourophenyl)-3(Quinoxalin-2yl)thiazolo[2,3-c][1,2,4]triazole]		outstanding inhibition	0.0181 ± 0.0005
c1ccc2nc(-c3nnc4scc(-c5ccncc5)n34)cnc2c1 [Compound 23, 5-(pyridin-4-yl)-3-(quinoxalin-2-yl)thiazolo[2,3-c][1,2,4]triazole]		inactive	
Cc1ccccc1-c1csc2nnc(-c3cnc4ccccc4n3)n12 [Compound 9, 3-(quinoxalin-2-yl)-5-o-tolylthiazolo[2,3-c][1,2,4]triazole]		moderate inhibition	0.0564 ± 0.0012
Oc1ccc(O)c(-c2csc3nnc(-c4cnc5ccccc5n4)n23)c1 [Compound 15, 2-(3-(quinoxalin-2-yl)thiazolo[2,3-c][1,2,4]triazol-5-yl)benzene-1,4-diol]	0.0152 ± 0.0005	outstanding inhibition	
Oc1ccc(-c2csc3nnc(-c4cnc5ccccc5n4)n23)cc1 [Compound 13, 4-(3-(quinoxalin-2-yl)thiazolo[2,3-c][1,2,4]triazol-5-yl)phenol]		outstanding inhibition	0.0183 ± 0.00055
O=[N+]([O-])c1ccc(-c2csc3nnc(-c4cnc5ccccc5n4)n23)cc1 [Compound 8, 5-(4-nitrophenyl)-3(Quinoxalin-2yl)thiazolo[2,3-c][1,2,4]triazole]		moderate inhibition	0.0475 ± 0.0009
Clc1ccc(-c2csc3nnc(-c4cnc5ccccc5n4)n23)cc1 [Compound 6, 5-(4-chlorophenyl)-3(Quinoxalin-2yl)thiazolo[2,3-c][1,2,4]triazole]		outstanding inhibition	0.0244 ± 0.0006
COc1ccc(-c2csc3nnc(-c4cnc5ccccc5n4)n23)cc1O [Compound 18, 2-methoxy-5-(3-(quinoxalin-2-yl)thiazolo[2,3-c][1,2,4]triazol-5-yl)phenol]	0.0169 ± 0.0006	outstanding inhibition	
Oc1cccc(-c2csc3nnc(-c4cnc5ccccc5n4)n23)c1 [Compound 12, 3-(3-(quinoxalin-2-yl)thiazolo[2,3-c][1,2,4]triazol-5-yl)phenol]		outstanding inhibition	0.0332 ± 0.00075
Cc1ccc(-c2csc3nnc(-c4cnc5ccccc5n4)n23)cc1 [Compound 11, 3-(quinoxalin-2-yl)-5-p-tolylthiazolo[2,3-c][1,2,4]triazole]		inactive	
Clc1ccccc1-c1csc2nnc(-c3cnc4ccccc4n3)n12 [Compound 4, 5-(2-chlorophenyl)-3(Quinoxalin-2yl)thiazolo[2,3-c][1,2,4]triazole]		outstanding inhibition	0.0274 ± 0.0006
Oc1ccc(-c2csc3nnc(-c4cnc5ccccc5n4)n23)c(O)c1 [Compound 14, 4-(3-(quinoxalin-2-yl)thiazolo[2,3-c][1,2,4]triazol-5-yl)benzene-1,3-diol]	0.0132 ± 0.0004	outstanding inhibition	
COc1ccc(-c2csc3nnc(-c4cnc5ccccc5n4)n23)c(O)c1 [Compound 17, 5-methoxy-2-(3-(quinoxalin-2-yl)thiazolo[2,3-c][1,2,4]triazol-5-yl)phenol]	0.0242 ± 0.0007	outstanding inhibition	
COc1ccc(-c2csc3nnc(-c4cnc5ccccc5n4)n23)cc1 [Compound 20, 5-(4-methoxyphenyl)-3-(quinoxalin-2-yl)thiazolo[2,3-c][1,2,4]triazole]		inactive	
Cc1cccc(-c2csc3nnc(-c4cnc5ccccc5n4)n23)c1 [Compound 10, 3-(quinoxalin-2-yl)-5-m-tolylthiazolo[2,3-c][1,2,4]triazole]		inactive	
